# Key:
# [1] = tested on: obese Zucker Diabetic Sprague Dawley rats (ZDSD); experiment: Long-term MABP in obese Zucker Diabetic Sprague Dawley rats; type: in vivo; settings: 10 mg/kg/day in drinking water; also with 1% salt and diabetogenic diet
# Text: This example describes the long-term effects of 8-aminoguanine (FIG. 14A) and 8-aminoguanosine (FIG. 14B) on mean arterial blood pressure (MABP) in obese Zucker Diabetic Sprague Dawley rats (ZDSD). Obese ZDSD are a recently developed model (developed by PreClinOmics) of metabolic syndrome that have a mild elevation of MABP and have dyslipidemia, diabetes, and obesity. All animals were instrumented for long-term measurement of MABP by radiotelemetry as previously described (Jackson E K et al., Hypertension, 65:238-249, 2015). Group 1 ZDSD received only normal drinking water, whereas Group 2 received normal drinking water for 7 days and then were provided drinking water containing 8-aminoguanine or 8-aminoguanosine (10 mg/kg/day) for the remainder of the study. The experiment was divided into three phases (indicated by the boxes). During phase 1, no other treatments were provided. During phase 2, all animals received 1% salt (NaCl) in their drinking water. During phase 3, all animals were provided (in addition to 1% salt in the drinking water) a diabetogenic diet to worsen diabetes. The numbers in each box are the average MABP in Group 2 versus Group 1 during the time period indicated by the box. P-values comparing Group 2 versus Group 1 during each phase of the experiment are also provided.
# Dahl SS = experiment: MRI analysis of strokes in Dahl SS; type: in vivo, Dahl salt-sensitive rats; settings: 8% salt diet, 10 mg/kg/day in drinking water, after 40 days
# Text: This example describes an MRI analysis of strokes in Dahl SS (FIG. 16). Six-week-old Dahl SS were purchased from Charles River. When animals arrived, they were divided into 4 groups. Group A is the normal control group in which the Dahl SS were maintained on a 0.3% salt diet for the entire study. Group B is the positive control group in which the Dahl SS were maintained on an 8% salt diet for the entire study. Group C is the 8-aminoguanosine group in which Dahl SS were maintained on an 8% salt diet with 10 mg/kg/day of 8-aminoguanosine in their drinking water for the entire study. Group D is the 8-aminoguanine group in which the Dahl SS were maintained on an 8% salt diet with 10 mg/kg/day of 8-aminoguanine in their drinking water for the entire study. After 40 days of treatment, the rats were transported to an MRI facility for T2-weighted MRI of the brain.
# [2] = tested on: Dahl salt-sensitive rats (Dahl SS); experiment: Survival of Dahl SS on high-salt diet; type: in vivo; settings: for median survival time: 10 mg/kg/day beginning 23 days before high-salt (8% NaCl) diet, control 70 days; for hemiparalysis before death / increase in lifespan: 10 mg/kg/day; for hemiparalysis before death: high-salt diet; for increase in lifespan: versus control group on high-salt diet
# Experimental: This example describes the long-term effects of 8-aminoguanine (FIG. 15A) and 8-aminoguanosine (FIG. 15B) on survival in Dahl salt-sensitive rats (Dahl SS). Dahl SS are a well-established model of salt-sensitive hypertension. The control group of Dahl SS received only normal drinking water; whereas the treatment group received 8-aminoguanine or 8-aminoguanosine (10 mg/kg/day) beginning 23 days before starting a high-salt (8% NaCl) diet and continuing until all animals expired. The control group was also provided a high-salt diet at the same time as the treated group. FIGS. 15A-15B show survival curves for the control group versus the 8-aminoguanine-treated group or 8-aminoguanosine-treated group.
# anesthetized rats = experiment: Protocol 1: head-to-head intravenous bolus in anesthetized rats (Example 11); type: in vivo, male Sprague-Dawley rats; settings: 33.5 μmoles/kg intravenous bolus versus vehicle
# Experimental: Animals. Male Sprague-Dawley rats (Charles River; Wilmington, Mass.) approximately 16 weeks old were employed. The Institutional Animal Care and Use Committee approved all procedures. The investigation conforms to National Institutes of Health Guide for the Care and Use of Laboratory Animals.
# Protocol 1. After inducing anesthetization with Inactin® (90 mg/kg, i.p.), each rat was positioned on an isothermal pad. A thermometer probe was inserted into the rectum, and the rat's body temperature was continuously monitored and maintained at 37° C. by adjusting the distance of a heat lamp from the animal's body. Using polyethylene (PE)-240 tubing, the trachea was cannulated to aid respiration. Next, a PE-50 cannula was inserted into the carotid artery and connected to a digital blood pressure analyzer (Micro-Med, Inc., Louisville, Ky.) for continuous measurement of mean arterial blood pressure (MABP) and heart rate (HR). A PE-50 cannula was placed in the jugular vein, and infusion of 0.9% saline (50 μl/min) began. After a stabilization period of approximately one hour, urine was collected for 30 minutes, while MABP and HR were time-averaged (Period 1: 0-30 minutes into protocol). Next, 8-aminoguanosine (33.5 μmoles/kg; 1 ml/kg) or 8-aminoguanine (33.5 μmoles/kg; 1 ml/kg) or vehicle (0.9% saline containing 0.03 N HCl; 1 ml/kg) was administered intravenously as a bolus. The dose was selected based on Examples 1-7. Rats were randomized to treatment groups, and the rats in each group received only one treatment. Ten minutes after the treatments, urine was collected for another 30 minutes (Period 2: […] into protocol). After a 15-minute rest period, urine was again collected for 30 minutes (Period 3: 85-115 minutes into protocol). During each urine collection period, the MABP and HR were continuously recorded. Further, at the midpoint of each 30-minute urine collection period, a blood sample (0.5 ml) was obtained to measure plasma creatinine (Creatinine Colorimetric Assay Kit; catalogue number, 500701; Cayman Chemical; Ann Arbor, Mich.) and aldosterone (Aldosterone ELISA Kit; catalogue number, ADI-900-173; Enzo Life Sciences, Farmingdale, N.Y.) and to determine sodium and potassium by flame photometry (Model IL-943; Instrumentations Laboratory Inc., Lexington, Mass.). Sodium and potassium were also measured in urine (flame photometry) as was glucose (Glucose Colorimetric Assay Kit; catalogue number, 10009582; Cayman Chemical). Creatinine clearance was calculated as an estimate of glomerular filtration rate (GFR).
# Statistics. Statistical analysis was performed using 1- or 2-factor repeated measures analysis of variance (ANOVA) followed by a Fisher's Least Significant Difference (LSD) test if the effects in the ANOVA were significant. The criterion of significance was p<0.05. The values are presented as the mean±SEM. […]
SMILES,MABP in metabolic syndrome (obese ZDSD) [1],stroke detected by T2-weighted MRI of the brain (Dahl SS),median survival time [2],hemiparalysis before death [2],increase in lifespan [2],MABP (anesthetized rats),glomerular filtration rate (GFR; creatinine clearance) (anesthetized rats),heart rate (HR) (anesthetized rats),plasma aldosterone concentrations (anesthetized rats),urinary glucose excretion (anesthetized rats),urinary potassium excretion (anesthetized rats),urinary sodium excretion (anesthetized rats),urine volume (anesthetized rats)
"Nc1nc2[nH]c(N)nc2c(=O)[nH]1 [8-aminoguanine, 8-Aminoguanine]",decrease MABP,protect against strokes,108 days,did not exhibit hemiparalysis,54%,neither 8-aminoguanosine nor 8-aminoguanine acutely affected,significantly lower,neither 8-aminoguanosine nor 8-aminoguanine acutely affected,neither 8-aminoguanosine nor 8-aminoguanine acutely affected,significantly greater,significantly lower,significantly greater,significantly greater
"Nc1nc2c(nc(N)n2[C@@H]2O[C@H](CO)[C@@H](O)[C@H]2O)c(=O)[nH]1 [8-aminoguanosine, 8-Aminoguanosine]",decrease MABP,protect against strokes,108 days,did not exhibit hemiparalysis,54%,neither 8-aminoguanosine nor 8-aminoguanine acutely affected,significantly lower,neither 8-aminoguanosine nor 8-aminoguanine acutely affected,neither 8-aminoguanosine nor 8-aminoguanine acutely affected,significantly greater,significantly lower,significantly greater,significantly greater

# — patent publication US11103526B2, “Methods for treatment using small molecule potassium-sparing diuretics and natriuretics” (University of Pittsburgh—Of the Commonwealth System of …, priority 2016, dated 2021)
